A short description of experiment [1]: Accelerated autoxidation of lipids by air, Rancimat apparatus, squalene. To be noted: antioxidative index = IP(with test solution)/IP(control sample), squalene purified over alumina grade N, stabilized with 1 ppm α-tocopherol. On the procedure: (§1) The activity of the exemplary compounds as antioxidants was compared with that of conventional antioxidants. The test system used was the accelerated autoxidation of lipids by air with or without antioxidant using the Rancimat apparatus (Rancimat is a registered trademark of Metrohm AG, Herisau, Switzerland).
(§2) The exemplary compounds, vitamin C, α-tocopherol and 3,5-di-tert-butyl-4-hydroxytoluene were dissolved in methanol or acetone, and 100 μl of each test solution was added to a 3 g prepared oil sample. In a control sample, only solvent was added. A constant stream of dry air (20 l/h) was bubbled through the heated oil sample which contained the test solution, and the volatile oxidation products (predominantly short-chain fatty acids such as formic acid or acetic acid) were collected in a receiver containing water. The conductivity of this aqueous solution was continuously measured and documented. The oxidation of (unsaturated) fats proceeds only very slowly for some time and then suddenly increases. The time to the increase is referred to as the induction period (IP).
(§3) The following equation was used to calculate the antioxidative index (AOI):
(§4) AOI=IP(with test solution)/IP(control sample).
The results for the experiment at 80° C. in squalene that has been purified over alumina grade N and stabilized with 1 ppm of α-tocopherol are given in Table 4: […]

A short description of experiment [2]: DPPH test for the removal of free radicals (activity as free-radical scavengers). To be noted: DPPH 100 μmol/l in methanol, absorption at 515 nm. The protocol:
The activity of the exemplary compounds as free-radical scavengers was compared with that of conventional free-radical scavengers. For this purpose, the DPPH-(1,1-diphenyl-2-picrylhydrazyl) test for the removal of free radicals was used.
DPPH was dissolved in methanol to a concentration of 100 μmol/l. A series of dilutions of the exemplary compounds, vitamin C, α-tocopherol and 3,5-di-tert-butyl-4-hydroxytoluene were prepared in methanol. Methanol served as the control. 2500 μl of the DPPH solution were mixed with 500 μl of each test solution and the decrease in absorption at 515 nm was read until the decrease was less than 2% per hour. The activity of the test substances as free-radical scavengers was calculated according to the following equation:
Activity as free-radical scavenger (%)=100−(absorption of the test compounds)/(absorption of the control)×100.
The activity as free-radical scavenger (%) in a series of dilutions of test compounds was used to calculate, for each test compound, the effective relative concentration EC50 (based on the starting concentration of DPPH, EC=c(test compound)/c(DPPH)) of a test compound at which 50% of the free radical DPPH had been removed.

Experiment [3] can be described thus: Accelerated autoxidation of lipids by air, Rancimat apparatus, soybean oil. The conditions noted are these: antioxidative index = IP(with test solution)/IP(control sample), soybean oil purified over alumina grade N. On the procedure:
as §1, §2, §3, §4

Here are results for 8 compounds from patent US20030139470A1, “3,4-dihydroxybenzyl-substituted carbonic acid derivatives and the use thereof as antioxidants” (priority 2000, published 2003).

`Cc1cc(C(C)(C)C)c(O)c(C(C)(C)C)c1` [3,5-Di-tert-butyl-4-hydroxytoluene, reference compound]: the “AOI in squalene at 80° C. with 0.005% test substance” value (“AOI … with 0.005% test substance” for short) in experiment [1] worked out at 38. In experiment [2], the “EC50 (effective relative concentration, c(test compound)/c(DPPH), at which 50% of the free radical DPPH had been removed)” value worked out at 0.24 mol/mol. The “AOI in soybean oil at 100° C. with 0.05% test substance” value (from here on “AOI … with 0.05% test substance”) in experiment [3] came to 4.8.
As to `COC(=O)NCc1ccc(O)c(O)c1` [Example 1, N-(3,4-Dihydroxybenzyl)-O-methylurethane], the “AOI … with 0.005% test substance” value in experiment [1] is 34. In experiment [2], the “EC50 (effective relative concentration, c(test compound)/c(DPPH), at which 50% of the free radical DPPH had been removed)” value is listed as 0.29 mol/mol. The “AOI … with 0.05% test substance” value in experiment [3] was 7.2.
In the same order, the values of `CC(C)[C@@H]1CC[C@@H](C)C[C@H]1OC(=O)NCc1ccc(O)c(O)c1` [Example 2, N-(3,4-Dihydroxybenzyl)-O-[(1R,3R,4S)menthyl]urethane] are 48, 0.36 mol/mol and 6.5.
On to `CCCCCCOC(=O)NCc1ccc(O)c(O)c1` [Example 3, N-(3,4-Dihydroxybenzyl)-O-hexylurethane], for which the “AOI … with 0.005% test substance” value in experiment [1] was 49. For the same compound, in experiment [2], the “EC50 (effective relative concentration, c(test compound)/c(DPPH), at which 50% of the free radical DPPH had been removed)” value is 0.19 mol/mol. The “AOI … with 0.05% test substance” value in experiment [3] came to 14.5.
For the compound `CCCCC(CC)COC(=O)NCc1ccc(O)c(O)c1` (centres unmarked) [Example 4, N-(3,4-Dihydroxybenzyl)-O-(2-ethylhexyl)urethane], in experiment [1], the “AOI … with 0.005% test substance” value is listed as 45. In addition, the “EC50 (effective relative concentration, c(test compound)/c(DPPH), at which 50% of the free radical DPPH had been removed)” value in experiment [2] amounted to 0.13 mol/mol. In experiment [3], the “AOI … with 0.05% test substance” value stood at 10.7.
In the case of `CCCCCCNC(=S)NCc1ccc(O)c(O)c1` [Example 5, N-(3,4-Dihydroxybenzyl)-N′-hexylthiourea], the “AOI … with 0.005% test substance” value in experiment [1] is reported as 62. In experiment [2], the “EC50 (effective relative concentration, c(test compound)/c(DPPH), at which 50% of the free radical DPPH had been removed)” value was 0.06 mol/mol.
As to `O=C1O[C@H]([C@@H](O)CO)C(O)=C1O` [Vitamin C, reference compound], the “AOI … with 0.005% test substance” value in experiment [1] is 0.7. Moreover, the “EC50 (effective relative concentration, c(test compound)/c(DPPH), at which 50% of the free radical DPPH had been removed)” value in experiment [2] is 0.27 mol/mol. Further, the “AOI … with 0.05% test substance” value in experiment [3] amounted to 1.2.
In the same order, the values of `Cc1c(C)c2c(c(C)c1O)CC[C@@](C)(CCC[C@H](C)CCC[C@H](C)CCCC(C)C)O2` [α-Tocopherol, reference compound] are 39, 0.25 mol/mol and 5.1.
